The source of these data is patent US12509714B2, “Multiple heteroresistance to guide combination antibiotic regimens” (priority 2018, dated 2025).

“Also recorded” adds a separate entry of the source. Like-named read-outs stand apart in the source and are kept apart here.

For assay [1], the system named is Enterobacter cloacae isolate Mu208. Type of assay: cell-based. The settings on record: for resistance status of Mu208 by PAP: Mueller Hinton agar, 0-4 times the breakpoint. The procedure:
(§1) Population analysis profile. Population analysis profiles (PAPs) were conducted. Briefly, solid agar plates were made for each antibiotic at 7 concentrations containing 0, 0.125, 0.25, 0.5, 1, 2 and 4 times the breakpoint, using Mueller Hinton agar. Breakpoint concentrations for Enterobacteriaceae from CLSI (amikacin 64 ug/mL, gentamicin 16 ug/mL, tobramycin 16 ug/mL, ampicillin 32 ug/mL, aztreonam 16 ug/mL, cefazolin 32 ug/mL, cefepime 16 ug/mL, ceftazidime 16 ug/mL, meropenem 4 ug/mL, piperacillin/tazobactam 128/4 ug/mL, ciprofloxacin 1 ug/mL, fosfomycin 256 ug/mL (breakpoint for UPEC; 25 mg/L glucose-6-phosphate added to the media), tetracycline 16 ug/mL, trimethoprim/sulfamethoxazole 4/76 ug/mL), FDA (tigecycline 8 ug/mL), or EUCAST (colistin 4 ug/mL) were used. Dual PAPs were made similarly, with both drugs in each plate at the same multiple of their respective breakpoint (0, 0.125, 0.25, 0.5, 1, 2, 4 times the breakpoint). Isolates to be tested were grown up overnight in Mueller Hinton broth from a single colony isolated from a frozen stock. Serial microdilutions were plated at each concentration of antibiotic. Colonies were enumerated after overnight growth at 37° C. An isolate was classified as resistant if the number of colonies that grew at the breakpoint concentration were at least 50% of those that grew on antibiotic free plates. If an isolate was not resistant, it was classified as heteroresistant if the number of colonies that grew at 2 or 4 times the breakpoint were at least 0.0001% (1 in 10^6) of those that grew on antibiotic free plates. If isolates were neither classified as resistant or heteroresistant, they were classified as susceptible.

Assay [2] shares this test system. The format is cell-based. The settings on record: for initial reduction in bacterial levels: ceftazidime 128, ampicillin 128 μg/mL. How it is done: (§2) Time kills. Time kills were conducted. Briefly, 10^6 CFU/mL bacteria from an overnight culture were inoculated into 2 mL MH media in culture tubes (Globe Scientific) with and without antibiotic(s). The following concentrations were used: colistin 16 μg/mL, ceftazidime 128 μg/mL, fosfomycin 256 μg/mL (+25 mg/L Glucose-6-Phosphate (G6P)), ampicillin 128 μg/mL (FIG. 1e-h and Supplementary FIG. 2), fosfomycin 256 μg/mL (+25 mg/L G6P), trimethoprim 4 μg/mL sulfamethoxazole 76 μg/mL, amikacin 64 μg/mL, and piperacillin 256 μg/mL tazobactam 4 μg/mL (FIGS. 5C, D, G, H). Cultures were incubated at 37° C. shaking at 250 RPM for 1-48 hours. CFU were determined by serial diluting bacteria in PBS prior to plating on MH agar plates at various timepoints in the assay (0, 1, 2, 4, 6, 8, 10, 24, and 48 hour timepoints were used for time-kills). In FIG. 1E-H, serially diluted bacteria were also plated on MH agar plates with antibiotic added (colistin 16 μg/mL, ceftazidime128 μg/mL, fosfomycin 256 μg/mL(+25 mg/L G6P), and ampicillin 128 μg/mL). In FIGS. 5D, H culture tubes were imaged with a Canon EOS Rebel T3i.

The test system is the same in assay [3]. The assay is described as follows: Frequency of resistant subpopulations of Mu208 on antibiotic treatment and after subculture without antibiotic. The format is cell-based. The note with it: for frequency of resistant subpopulation upon subculture in the absence of antibiotic: antibiotic-free subculture; for frequency of the respective resistant subpopulation on treatment: in the presence of the antibiotic.

The subject of the next assay is Mu208 ΔphoQ. The assay is described as follows: Resistant subpopulations in the Mu208 phoQ deletion mutant. The format is cell-based, Enterobacter cloacae. The settings on record: compared with parental Mu208. The text has this:
Colistin heteroresistance in Enterobacter requires the two-component system histidine kinase PhoQ which we deleted from Mu208 to test whether colistin heteroresistance was linked to ceftazidime or fosfomycin heteroresistance.
Cloning and mutagenesis. Mu208 ΔphoQ was generated by lambda red recombination. Briefly, a kanamycin cassette flanked by FRT sites with homology to the regions directly upstream and downstream, respectively, of the phoQ open reading frame (ORF) was inserted into the phoQ ORF in Mu208 with pKD46-tet, prior to it being removed with a flp recombinase encoded on the temperature sensitive plasmid, PCP20.

The test system of another assay is Mu1176. The assay is described as follows: Control isolate Mu1176, resistance designation. The format is cell-based. From the text: (§3) Bacterial isolates. Enterobacter cloacae isolate Mu208 was isolated from a urine sample at an Atlanta area hospital. […] Carbapenem-resistant Enterobacteriaceae (CRE) were collected between 2013 and 2015 by the Georgia EIP MuGSI. The CDC for provided pan-resistant Klebsiella pneumoniae isolates AR0040 and Nevada-2016.

The next assay relates to Mu819. The assay is described as follows: Susceptible control isolate Mu819 (designation, PAP, time kill). The format is cell-based. How it is done:
as §3, §1
as §2, with “Cultures were incubated at 37° C. shaking at 250 RPM for 1-48 hours.” left out, “In FIG. 1E-H, serially diluted bacteria were also plated on MH agar plates with antibiotic added (colistin 16 μg/mL, ceftazidime128 μg/mL, fosfomycin 256 μg/mL(+25 mg/L G6P), and ampicillin 128 μg/mL). In FIGS. 5D, H culture tubes were imaged with a Canon EOS Rebel T3i.” left out

The subject of assay [4] is pan-resistant Klebsiella pneumoniae isolate Nevada-2016. The format is cell-based. The note with it: breakpoint concentration. How it is done: as §2
The test system of assay [5] is carbapenem-resistant Enterobacteriaceae (CRE) clinical isolates. The assay is described as follows: PAP screen of 104 CRE clinical isolates for heteroresistance to 16 antibiotics. The note with it: 104 CRE isolates. The format is cell-based. How it is done:
as §1, with “If an isolate was not resistant, it was classified as heteroresistant if the number of colonies that grew at 2 or 4 times the breakpoint were at least 0.0001% (1 in 10^6) of those that grew on antibiotic free plates. If isolates were neither classified as resistant or heteroresistant, they were classified as susceptible.” left out

Another assay deals with Mu661. The assay is described as follows: Control isolate Mu661, resistance designation. The format is cell-based.
Excerpt: as §3

The next assay concerns Mu712.
Excerpt: as §3

For assay [6], the system named is pan-resistant Klebsiella pneumoniae isolate Nevada-2016. The format is cell-based. The procedure: as §1
Assay [7] deals with pan-resistant Klebsiella pneumoniae isolate AR0040. Type of assay: cell-based. The note with it: amikacin 64 μg/mL; piperacillin 256 μg/mL tazobactam 4 μg/mL. The procedure: as §2
The mark [8] stands for this setting: colistin 16, ceftazidime 128, fosfomycin 256 μg/mL.

As for colistin, the “resistance status of Mu208 by PAP” value in [1] is “heteroresistance”. Moreover, in assay [1] (PAP), the “MIC of resistant subpopulation relative to the susceptible cells in the population” value was “at least 32 fold”, the “Mu208 cells killed by a concentration below the clinical breakpoint” value was “Roughly 4 logs” and the “concentration at which the resistant subpopulation survived” value worked out at 4 fold the breakpoint. For the same molecule, the “activity in combination with ampicillin” value in [1] (dual PAP with ampicillin) is “not enhanced”. In assay [2] (setting [8]), the “behaviour of resistant subpopulation / outgrowth in the presence of the single antibiotic” value is listed as “expanded exponentially”. Further, the “behaviour of resistant subpopulation / outgrowth in the presence of the single antibiotic” value in assay [2] (colistin 16, ceftazidime 128, fosfomycin 256 μg/mL, listed as Colistin) is recorded as “unable to prevent subsequent outgrowth”. Further, in [2] (single antibiotic, colistin 16 μg/mL), the “time within which the susceptible cells were killed” value is given as “one”. Moreover, the “activity in combination with ampicillin” value in assay [2] (time-kill with ampicillin) was “not enhanced”. For the same molecule, in assay [3], the “frequency of resistant subpopulation upon subculture in the absence of antibiotic” value (“frequency … of antibiotic” below) is on record as “returned to the baseline levels” and the “frequency of the respective resistant subpopulation on treatment” value (“frequency … on treatment” for short) was “robust increase”. The “resistant subpopulation in the phoQ mutant” value with Mu208 ΔphoQ is reported as “absent”. The “resistance designation of control isolate Mu1176” value in the assay with Mu1176 was “resistant”. In addition, in the assay with Mu819, the “resistance designation of control isolate Mu819” value is listed as “susceptible”. In addition, the “killing of representative susceptible isolate in PAP” value with Mu819 (concentration below the breakpoint, isolate not named at b160, Mu819) is on record as “all the cells of a representative susceptible isolate were killed”. Also, the “outcome of treatment of a susceptible strain in time kill” value in the assay with Mu819 (strain not named at b162, Mu819) is recorded as “eradicated”.

As to `C[C@@H]1O[C@@H]1P(=O)(O)O` [fosfomycin], in assay [1], the “activity in combination with ampicillin” value is “not enhanced” and the “resistance status of Mu208 by PAP” value is recorded as “heteroresistance”. The “concentration at which the resistant subpopulation survived” value in assay [1] (PAP) is recorded as 4 fold the breakpoint. In addition, the “activity in combination with ampicillin” value in assay [2] is reported as “not enhanced”. Also, in assay [2] (setting [8]), the “behaviour of resistant subpopulation / outgrowth in the presence of the single antibiotic” value is recorded as “rapidly increased in number; also recorded: unable to prevent subsequent outgrowth”. Also, the “killing of Nevada-2016 by single antibiotic” value in [4] is “killing of a significant proportion of the bacteria”. In [3], the “frequency … of antibiotic” value is “returned to the baseline levels” and the “frequency … on treatment” value is recorded as “robust increase”. The “proportion of the isolates exhibiting heteroresistance” value in assay [5] came to 72.1%. Besides, in the assay with Mu1176, the “resistance designation of control isolate Mu1176” value is “resistant”. Besides, the “resistance designation of control isolate Mu819” value in the assay on Mu819 is recorded as “susceptible”.

Turning to `CC1(C)S[C@@H]2[C@H](NC(=O)[C@H](N)c3ccccc3)C(=O)N2[C@H]1C(=O)O` [ampicillin], in assay [1], the “resistance status of Mu208 by PAP” value is “homogenous resistance”. The “killing of cells in PAP” value in [1] (any of the concentrations tested) is on record as “lack of significant killing”. Besides, the “initial reduction in bacterial levels” value in assay [2] (single antibiotic) is given as “did not lead to the initial reduction in bacterial levels”. Also, the “frequency … on treatment” value in [3] is listed as “constant”. For the same molecule, in assay [5], the “proportion of the isolates exhibiting heteroresistance” value stood at 1.0%. In addition, the “resistance designation of control isolate Mu1176” value in the assay on Mu1176 was “resistant”. The “resistance designation of control isolate Mu661” value in the assay on Mu661 is recorded as “susceptible”.

On to `CC(C)(O/N=C(\C(=O)N[C@@H]1C(=O)N2C(C(=O)[O-])=C(C[n+]3ccccc3)CS[C@H]12)c1csc(N)n1)C(=O)O` [ceftazidime], for which, in [1], the “activity in combination with ampicillin” value was “not enhanced”, the “concentration at which the resistant subpopulation survived” value is reported as 4 fold the breakpoint and the “resistance status of Mu208 by PAP” value was “heteroresistance”. For the same molecule, in assay [2], the “activity in combination with ampicillin” value was “not enhanced” and the “behaviour of resistant subpopulation / outgrowth in the presence of the single antibiotic” value is recorded as “rapidly increased in number; also recorded: unable to prevent subsequent outgrowth”. Moreover, in assay [2] (single antibiotic), the “initial reduction in bacterial levels” value was “killing was delayed”. Moreover, in assay [3], the “frequency … of antibiotic” value is on record as “returned to the baseline levels” and the “frequency … on treatment” value was “robust increase”. Moreover, the “resistance designation of control isolate Mu1176” value in the assay with Mu1176 was “resistant”. Also, the “resistance designation of control isolate Mu712” value with Mu712 is “susceptible”.

As to `NCC[C@H](O)C(=O)N[C@@H]1C[C@H](N)[C@@H](O[C@H]2O[C@H](CN)[C@@H](O)[C@H](O)[C@H]2O)[C@H](O)[C@H]1O[C@H]1O[C@H](CO)[C@@H](O)[C@H](N)[C@H]1O` [amikacin], in assay [6], the “resistance status of Nevada-2016 by PAP” value is listed as “homogenous resistance”. For the same molecule, the “initial killing of AR0040 by single drug” value in [7] was “significant initial killing”.
